Measured values taken from PubChem BioAssay AID1963986 (Molecular Pharmacology Branch, DTP, NCI, 2024).
pIC50: −log10 of the molar value.

Tested on: 171881-019-R-J1-PDC tumor spheroid viability
Assay: Anticancer human tumor 171881-019-R-J1-PDC patient-derived invasive breast carcinoma cell line growth inhibition [PI3K]
Details: spheroids with HUVEC and MSC; for pIC50: curve of first compound; for viability, T/C: stronger effect = lower value
In short: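 Tumor cells were combined with HUVEC and MSCs into spheroids, then dosed with PI3K-inhibitor combinations over half-log ranges capped near clinical Cmax or 10 microM.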

[1] = second compound 0.0316 µM, first compound 0.000316 µM
[2] = second compound 0.0316 µM, first compound 0.001 µM
[3] = second compound 0.0316 µM, first compound 0.00316 µM
[4] = second compound 0.0316 µM, first compound 0.01 µM
[5] = second compound 0.0316 µM, first compound 0.0316 µM
[6] = second compound 0.0316 µM, first compound 0.1 µM
[7] = second compound 0.1 µM, first compound 0.000316 µM
[8] = second compound 0.1 µM, first compound 0.001 µM
[9] = second compound 0.1 µM, first compound 0.00316 µM
[10] = second compound 0.1 µM, first compound 0.01 µM
[11] = second compound 0.1 µM, first compound 0.0316 µM
[12] = second compound 0.1 µM, first compound 0.1 µM
[13] = second compound 0.316 µM, first compound 0.000316 µM
[14] = second compound 0.316 µM, first compound 0.001 µM
[15] = second compound 0.316 µM, first compound 0.00316 µM
[16] = second compound 0.316 µM, first compound 0.01 µM
[17] = second compound 0.316 µM, first compound 0.0316 µM
[18] = second compound 0.316 µM, first compound 0.1 µM
[19] = second compound 1 µM, first compound 0.000316 µM
[20] = second compound 1 µM, first compound 0.001 µM
[21] = second compound 1 µM, first compound 0.00316 µM
[22] = second compound 1 µM, first compound 0.01 µM
[23] = second compound 1 µM, first compound 0.0316 µM
[24] = second compound 1 µM, first compound 0.1 µM
[25] = second compound 3.16 µM, first compound 0.000316 µM
[26] = second compound 3.16 µM, first compound 0.001 µM
[27] = second compound 3.16 µM, first compound 0.00316 µM
[28] = second compound 3.16 µM, first compound 0.01 µM
[29] = second compound 3.16 µM, first compound 0.0316 µM
[30] = second compound 3.16 µM, first compound 0.1 µM
[31] = second compound 10 µM, first compound 0.000316 µM
[32] = second compound 10 µM, first compound 0.001 µM
[33] = second compound 10 µM, first compound 0.00316 µM
[34] = second compound 10 µM, first compound 0.01 µM
[35] = second compound 10 µM, first compound 0.0316 µM
[36] = second compound 10 µM, first compound 0.1 µM
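Also: spheroids exposed to compound for 7 days before viability read.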
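For viability, T/C in this document: 100% = DMSO vehicle-treated spheroids.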

Work on CC(=O)c1c(C)c2cnc(Nc3ccc(N4CCNCC4)cn3)nc2n(C2CCCC2)c1=O + CC(Nc1ncnc2nc[nH]c12)c1cc2cccc(Cl)c2c(=O)n1-c1ccccc1 yielded a pIC50 (second compound 0.0316 µM) of under 7.00, a pIC50 (second compound 0.1 µM) of under 7.00 and a pIC50 (second compound 0.316 µM) of under 7.00. For the same compound, the pIC50 (second compound 1 µM) was under 7.00, the pIC50 (second compound 3.16 µM) was under 7.00 and the pIC50 (second compound 10 µM) was under 7.00. It also gave a viability, T/C [1] of 91.9%, a viability, T/C [2] of 88% and a viability, T/C [3] of 93%. For the same compound, the viability, T/C [4] was 90.6%, the viability, T/C [5] was 102% and the viability, T/C [6] was 92.9%. For the same compound, the viability, T/C [7] was 99.9%, the viability, T/C [8] was 96.8% and the viability, T/C [9] was 98.3%. The viability, T/C [10] was 91.7%, the viability, T/C [11] was 97.6% and the viability, T/C [12] was 88.7%. It also gave a viability, T/C [13] of 91%, a viability, T/C [14] of 88.5% and a viability, T/C [15] of 96%. For the same compound, the viability, T/C [16] was 107%, the viability, T/C [17] was 106% and the viability, T/C [18] was 87.8%. The viability, T/C [19] was 104%, the viability, T/C [20] was 87.6% and the viability, T/C [21] was 100%. The viability, T/C [22] was 94.9%, the viability, T/C [23] was 102% and the viability, T/C [24] was 82.2%. It also gave a viability, T/C [25] of 94.2%, a viability, T/C [26] of 90.3% and a viability, T/C [27] of 91.2%. It also gave a viability, T/C [28] of 93.2%, a viability, T/C [29] of 103% and a viability, T/C [30] of 79.1%. It also gave a viability, T/C [31] of 62.4%, a viability, T/C [32] of 60.1% and a viability, T/C [33] of 59.1%. The viability, T/C [34] was 63.8%, the viability, T/C [35] was 64.9% and the viability, T/C [36] was 56.9%.
Work on CC(C)n1nc(-c2ccc3oc(N)nc3c2)c2c(N)ncnc21 + CC(Nc1ncnc2nc[nH]c12)c1cc2cccc(Cl)c2c(=O)n1-c1ccccc1 yielded a pIC50 (second compound 0.0316 µM) of 7.91, a pIC50 (second compound 0.1 µM) of 8.01 and a pIC50 (second compound 0.316 µM) of 7.99. For the same compound, the pIC50 (second compound 1 µM) was 8.10, the pIC50 (second compound 3.16 µM) was 8.38 and the pIC50 (second compound 10 µM) was 8.92. The viability, T/C [1] was 89.7%, the viability, T/C [2] was 75.7% and the viability, T/C [3] was 86.5%. The viability, T/C [4] was 53.3%, the viability, T/C [5] was 22.7% and the viability, T/C [6] was 3.39%. It also gave a viability, T/C [7] of 89.8%, a viability, T/C [8] of 90.5% and a viability, T/C [9] of 71.8%. It also gave a viability, T/C [10] of 51.1%, a viability, T/C [11] of 21% and a viability, T/C [12] of 4.54%. It also gave a viability, T/C [13] of 96.2%, a viability, T/C [14] of 94.3% and a viability, T/C [15] of 78.2%. The viability, T/C [16] was 50.7%, the viability, T/C [17] was 20.4% and the viability, T/C [18] was 3.31%. It also gave a viability, T/C [19] of 93.1%, a viability, T/C [20] of 89.3% and a viability, T/C [21] of 67.4%. The viability, T/C [22] was 47.3%, the viability, T/C [23] was 18.5% and the viability, T/C [24] was 3.26%. The viability, T/C [25] was 84.5%, the viability, T/C [26] was 71.8% and the viability, T/C [27] was 53.8%. For the same compound, the viability, T/C [28] was 37%, the viability, T/C [29] was 13.3% and the viability, T/C [30] was 3.36%. For the same compound, the viability, T/C [31] was 55.8%, the viability, T/C [32] was 52.1% and the viability, T/C [33] was 40%. It also gave a viability, T/C [34] of 22.2%, a viability, T/C [35] of 7.46% and a viability, T/C [36] of 3.13%.
